Target: T1, Interstitial collagenase (Homo sapiens, UniProt P03956)
T1 sequence (P03956 whole entry): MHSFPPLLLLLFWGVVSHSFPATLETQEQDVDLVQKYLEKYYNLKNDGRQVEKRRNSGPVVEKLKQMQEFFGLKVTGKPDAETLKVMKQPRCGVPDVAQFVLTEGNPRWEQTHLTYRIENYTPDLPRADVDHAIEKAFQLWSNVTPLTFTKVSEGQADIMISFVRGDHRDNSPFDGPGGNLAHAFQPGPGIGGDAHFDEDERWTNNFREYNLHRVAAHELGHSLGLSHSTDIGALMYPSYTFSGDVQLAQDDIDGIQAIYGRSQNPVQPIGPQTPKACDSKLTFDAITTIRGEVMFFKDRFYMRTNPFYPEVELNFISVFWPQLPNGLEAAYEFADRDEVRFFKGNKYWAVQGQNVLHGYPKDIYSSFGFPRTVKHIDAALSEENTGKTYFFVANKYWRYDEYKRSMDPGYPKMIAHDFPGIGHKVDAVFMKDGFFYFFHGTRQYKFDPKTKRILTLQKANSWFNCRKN
Assay: Inhibition of human matrix metalloprotease-1

SMILES	Ki	IC50
O=C(NO)C1CCCCN1S(=O)(=O)N1CCC(Oc2ccc(-n3ccnc3)cc2)CC1 (stereo not given)	0.224 µM	–
CCCCOc1ccc(S(=O)(=O)N2CC(N3CCOCC3)CC2C(=O)NO)cc1 (stereo not given)	–	0.92 µM
CNC(=O)C(NC(=O)C(CC(C)C)C(NS(=O)(=O)c1cccc2cccc(=O)n12)C(=O)NO)C(C)(C)C (stereo not given)	–	0.0013 µM
O=C(CN(Cc1ccc([N+](=O)[O-])cc1)S(=O)(=O)c1ccc(C(F)(F)F)cc1)NO	0.003 µM	–
CC#CCOc1ccc(S(=O)(=O)N2CCc3ccccc3C2C(=O)NO)cc1 (stereo not given)	–	0.121 µM
O=C(NO)C1CCCCN1S(=O)(=O)N1CCN(c2ccccn2)CC1 (stereo not given)	0.423 µM	–
CC(C)C(NS(=O)(=O)N1CCC(Oc2ccc(Cl)cn2)CC1)C(=O)NO (stereo not given)	–	0.36 µM
CCOC(=O)[C@H](C)NC(=O)[C@H](CC(C)C)NC(=O)[C@@H](CC(=O)NO)CC(C)C	–	0.04 µM
O=C(CC1(S(=O)(=O)c2ccc(Oc3ccc(Cl)cc3)cc2)CCOCC1)NO	0.07 µM	–
Cc1ccc(COc2ccc(S(=O)(=O)N3CCCC(C)(O)C3C(=O)NO)cc2)c(C)c1 (stereo not given)	–	0.01 µM

From ChEMBL document CHEMBL1148451, “Receptor flexibility in the in silico screening of reagents in the S1' pocket of human collagenase” (J Med Chem, 2004)
